We go through 3 compounds from paper PMC9654711, “Neuroprotective Action of Coumarin Derivatives through Activation of TRKB-CREB-BDNF Pathway and Reduction of Caspase Activity in Neuronal Cells Expressing Pro-Aggregated Tau Protein” (International Journal of Molecular Sciences, 2022).

A word on the pEC50: it is the negative decadic logarithm of the EC50, by convention in mol/L. By IC50 is commonly meant the concentration needed to halve the response being measured.

pEC50: −log10 of the molar value.

The target of data set [1] is T1, E. coli-expressed ΔK280 tauRD protein (Homo sapiens, UniProt P10636, DEL597-597).
T1 construct: assessed by using E. coli-expressed ΔK280 tauRD protein; made in house; host or cells: E. coli
Nature of the data set: Anti-ΔK280 tauRD aggregation assay (thioflavin T). In kind it is biochemical. The note with it: compounds tested 1–10 μM, 20 μM protein, 48 h, linear interpolation, read-out: EC50 for ΔK280 tauRD aggregation inhibition. On the procedure:
Thioflavin T is widely used to visualize and quantify the presence of misfolded amyloid protein aggregates in vitro [74]. The tau aggregation inhibiting potential of Congo red, LM-031 and LMDS-1 to -4 was assessed by using E. coli-expressed ΔK280 tauRD protein [28]. Briefly, purified ΔK280 tauRD protein (20 μM) was incubated with Congo red or coumarin compounds (1–10 μM) in 150 mM NaCl and 20 mM Tris-HCl pH8.0, at 37 °C with shaking for 48 h to form aggregates. Then, thioflavin T (final 5 μM; Acros Organics, Geel, Belgium) was added and incubated for 25 min at room temperature. Fluorescence intensity of samples was recorded at excitation/emission wavelengths of 420/485 nm using an FLx800 microplate reader (BioTek, Winooski, VT, USA). The half maximal effective concentration (EC50) values were calculated by using a linear interpolation method.

Data set [2] has as its system ΔK280 tauRD-DsRed SH-SY5Y cells. Nature of the data set: High-content analysis of neurite outgrowth. In kind it is cell-based, human. The conditions noted are these: 10 µM; for Neurite branching: induced untreated 0.87, uninduced 0.99; for Neurite length: induced untreated 27.2 μm, uninduced 30.9 μm. On the procedure: As described, ∆K280 tauRD-DsRed SH-SY5Y cells were seeded in a 24-well plate (5 × 10^4/well) with retinoic acid addition on day 1, treated with tested compounds (10 µM) and ∆K280 tauRD-DsRed expression was induced with doxycycline (2 μg/mL) on day 2. On day 8, after being fixed in 4% paraformaldehyde for 15 min, permeabilized in 0.1% Triton X-100 for 10 min and blocked in 3% bovine serum albumin (BSA) for 20 min, the cells were stained with TUBB3 (neuronal class III β-tubulin) primary antibody (1:1000; BioLegend, San Diego, CA, USA) at 4 °C overnight, followed by goat anti-rabbit Alexa Fluor® 555 secondary antibody (1:1000; Molecular probes) at room temperature for 2 h, with 4′-6-diamidino-2-phenylindole (DAPI, 0.1 µg/mL; Sigma-Aldrich) included for nuclei staining. Neuronal images were captured using the high-content analysis system as described. Neurite total length (μm), processes (primary neurite extensions projecting directly from the cell body) and branching (points at which primary neurites bifurcated) were analyzed using Neurite Outgrowth Application Module (MetaXpress; Molecular Devices). Around 5000 cells were analyzed in each of three independent experiments for each sample.

A short description of data set [3]: Oxygen radical antioxidant capacity (ORAC) assay. The note with it: compound at 100 μM. On the procedure:
In addition, an oxygen radical antioxidant capacity (ORAC) assay was performed using an OxiSelect™ kit according to the manufacturer’s instruction (Cell Biolabs, San Diego, CA, USA). Briefly, Trolox standards (2.5–50 μM) and samples (4–100 μM) were diluted with 50% acetone. Blank (50% acetone), standards and samples were mixed with fluorescein and incubated at 37 °C for 30 min. Following the free radical initiator 2,2′-azobis(2-methylpropionamidine) dihydrochloride (AAPH), the produced peroxyl radicals (ROO•) quench the fluorescent probe over time. Antioxidants present in the assay block the peroxyl radical oxidation of the fluorescent probe. The course of the reaction was recorded for 60 min, with one measurement every five minutes using a BioTek FLx800 microplate reader. The excitation and emission wavelengths were set at 480 nm and 520 nm, respectively. To quantify the oxygen radical antioxidant activity in a sample, the area under the curve (AUC) for blank, standard and samples was calculated. After subtraction of the blank, the equivalent Trolox concentrations of samples were expressed based on the Trolox standard curve.

Data set [4] can be described thus: High-content analysis of ΔK280 tauRD-DsRed fluorescence and cell number (folding reporter). In kind it is cell-based, human. The conditions noted are these: human; induced ΔK280 tauRD-DsRed SH-SY5Y; compounds 2.5–10 µM; read-out: IC50 cytotoxicity based on the cell number analyzed. On the procedure:
On day 1, ∆K280 tauRD-DsRed SH-SY5Y cells were seeded in a 96-well plate (3 × 10^4/well), with retinoic acid (10 µM; Sigma-Aldrich) added to induce neuronal differentiation. […] […] For ROS measurement, dichloro-dihydro-fluorescein diacetate (DCFH-DA, 10 µM; Invitrogen, Carlsbad, CA, USA) was added to the cells on day 8 and incubated at 37 °C for 30 min.

Data set [5] is described as follows: DPPH free radical-scavenging assay. The note with it: compounds tested 10–80 μM; DPPH 100 µM; linear interpolation. On the procedure:
The potential free radical-scavenging activity of test compounds was assayed using stable free radical 1,1-diphenyl-2-picrylhydrazyl (DPPH) (Sigma-Aldrich). Briefly, kaempferol, LM-031 or LMDS-1 to -4 (10–80 µM) was added to DPPH (100 µM in 99% ethanol). The solution was vortexed for 15 s, left for 30 min at room temperature, the mixture was transferred to a 96-well UV-transparent microplate and the absorbance at 517 nm was measured using a Multiskan^TM GO microplate spectrophotometer (Thermo Fisher Scientific, Waltham, MA, USA). Radical-scavenging activity was calculated using the equation: 1 − (absorbance of sample/absorbance of control) × 100%, and EC50 estimated using the linear interpolation method.
For orientation: The DPPH test is a chemical assay of radical scavenging.

T1 sequence (P10636 with tags, fused parts or gaps DEL597-597): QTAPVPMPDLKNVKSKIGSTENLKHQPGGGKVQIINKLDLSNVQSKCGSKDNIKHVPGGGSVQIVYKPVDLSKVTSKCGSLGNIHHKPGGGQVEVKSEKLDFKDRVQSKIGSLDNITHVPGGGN

For `O=C(c1ccccc1)c1cc2c(O)cccc2oc1=O` [LM-031, 3-benzoyl-5-hydroxychromen-2-one], in data set [1], the pEC50 is 4.44. Further, in data set [2], the Neurite branching is recorded as 1.00–1.06 and the Neurite length is listed as 30.3–31.5 μm. Besides, the “Oxygen radical absorbance capacity, activity equivalent to Trolox” value (from here on “Oxygen radical absorbance capacity”) in data set [3] came out at 51 μM Trolox. In addition, the IC50 at 6 days in data set [4] was found to be 43 µM. This compound had a pEC50 in data set [5] of 4.03.
On to `CCOc1ccc2cc(C(=O)c3ccccc3)c(=O)oc2c1` [LMDS-1], for which the pEC50 is 4.08 in data set [1] and 3.91 in data set [5]. For the same compound, in data set [2], the Neurite branching is reported as 1.00–1.06. In data set [2], the Neurite length is 30.3–31.5 μm. Moreover, the “Oxygen radical absorbance capacity” value in data set [3] was found to be 10 μM Trolox. The IC50 at 6 days in data set [4] amounted to 25 µM.
For `O=C(c1ccccc1)c1cc2ccc(O)cc2oc1=O` [LMDS-2], the pEC50 in data set [1] is 5.10. Besides, in data set [2], the Neurite branching is reported as 1.00–1.06 and the Neurite length is on record as 30.3–31.5 μm. Moreover, the “Oxygen radical absorbance capacity” value in data set [3] was determined as 15 μM Trolox. In addition, the IC50 at 6 days in data set [4] was found to be 24 µM. For the same compound, the pEC50 in data set [5] was 3.88.
